Source: patent US8802694B2, “3,6-diazabicyclo[3.1.1]heptanes as neuronal nicotinic acetycholine receptor ligands” (Targacept, Inc., priority 2009, dated 2014)
Read-outs that look alike come from different tables or passages of the source.

How the values were obtained:
Human α4β2 = target: T1, Human α4β2 (Homo sapiens, UniProt P17787+P43681); assay: Competition binding to human α4β2 receptors in membranes of SH-EP1/human α4β2 cells ([3H]-nicotine)
T1 construct: host or cells: SH-EP1

α6β3β4α5 = target: T2, α6β3β4α5 (Homo sapiens, UniProt P30926+Q15825); assay: Competition binding to α6β3β4α5 receptors in membranes of SH-EP1/α6β3β4α5 cells ([3H]-epibatidine); conditions: membrane competition binding
T2 construct: host or cells: SH-EP1

Rat α4β2 = target: T3, Rat α4β2 (Rattus norvegicus, UniProt P09483+P12390); assay: Competition binding to rat α4β2 receptors in rat cortical membranes
T3 construct: Rat cortices were obtained from Analytical Biological Services; tissue Analytical Biological Services, Incorporated (ABS, Wilmington, Del.); host or cells: rat cortex (female Sprague-Dawley)
Procedure: Preparation of membranes from rat tissues. Rat cortices were obtained from Analytical Biological Services, Incorporated (ABS, Wilmington, Del.). Tissues were dissected from female Sprague-Dawley rats, frozen and shipped on dry ice. Tissues were stored at −20° C. until needed for membrane preparation. […] The resulting homogenate was centrifuged at 40,000 g for 20 minutes at 4° C. and the resulting pellet was resuspended in 20 volumes of ice-cold water. After 60-minute incubation at 4° C., a new pellet was collected by centrifugation at 40,000 g for 20 minutes at 4° C. The final pellet was resuspended in preparative buffer and stored at −20° C. On the day of the assay, tissue was thawed, centrifuged at 40,000 g for 20 minutes and then resuspended in PBS (Dulbecco's Phosphate Buffered Saline, Life Technologies, pH 7.4) to a final concentration of 2-3 mg protein/mL. Protein concentrations were determined using the Pierce BCA Protein Assay kit (Pierce Biotechnology, Rockford, Ill.), with bovine serum albumin as the standard.
Competition binding to receptors in membrane preparations. […] In brief, membranes were reconstituted from frozen stocks (approximately 0.2 mg protein) and incubated for 2 h on ice in […] assay buffer (PBS) in the presence of competitor compound (0.001 nM to […]) and radioligand. [^3H]-nicotine (L-(−)-[N-methyl-3H]-nicotine, 69.5 Ci/mmol, Perkin-Elmer Life Sciences) was used for human α4β2 binding studies. [^3H]-epibatidine (52 Ci/mmol, Perkin-Elmer Life Sciences) was used for binding studies at the other receptor subtypes. […] Filters were washed 3 times and the radioactivity retained was determined by liquid scintillation counting.
Binding data analysis. Binding data were expressed as percent total control binding. Replicates for each point were averaged and plotted against the log of drug concentration.

[1] = Human α4β2 Ki, membrane competition binding
[2] = Rat α4β2 Ki, rat cortex membranes
[3] = membrane competition binding, read-out: Human α4β2 Ki
[4] = rat cortex membranes, read-out: Rat α4β2 Ki

Row | Structure (SMILES) | Ki (Human α4β2; [1]) [nM] | Ki (α6β3β4α5; read-out: α6β3β4α5 Ki) [nM] | Ki (Rat α4β2; [2]) [nM] | Ki (Human α4β2; [3]) [nM] | Ki (α6β3β4α5; α6β3β4α5 Ki) [nM] | other results
1 | O=C(CC1CCC1)N1C2CNCC1C2 | 53 | 360 | 30 |  |  | 
2 | CC1(C)CC1C(=O)N1C2CNCC1C2 (stereo not shown) | 75 | 800 | 45 |  |  | 
3 | C[C@@H]1C(C(=O)N2C3CNCC2C3)[C@@H]1C (stereo partly shown) |  | 2400 |  | 610 |  | 
4 | O=C([C@@H]1C[C@H]1c1ccccc1)N1C2CNCC1C2 | 30 | 350 | 51 |  |  | 
5 | O=C(C1CC12CCC2)N1C2CNCC1C2 (stereo not shown) | 38 | 340 | 32 |  |  | 
6 | O=C(C1CC12CCCC2)N1C2CNCC1C2 (stereo not shown) |  | 610 |  | 280 |  | 
7 | O=C(C1C2CCCCC21)N1C2CNCC1C2 (stereo not shown) |  | 6400 |  | 310 |  | 
8 | CCC[C@H]1C[C@H]1C(=O)N1C2CNCC1C2 |  | 1100 |  | 570 |  | 
9 | CC1CC(C(=O)N2C3CNCC2C3)C1 (stereo not shown) | 49 | 770 | 58 |  |  | 
10 | O=C(C1CC(F)(F)C1)N1C2CNCC1C2 | 54 | 510 | 16 |  |  | 
11 | O=C(C1CC2C=CC1C2)N1C2CNCC1C2 (stereo not shown) |  | 900 |  | 200 |  | Ki (Rat α4β2; [4]): 380 nM
12 | O=C(C1C2C3CCC(C3)C12)N1C2CNCC1C2 (stereo not shown) |  | 100000 |  | 1900 |  | 
13 | O=C([C@@H]1C[C@H]2C=C[C@H]1C2)N1C2CNCC1C2 |  | 1300 |  | 300 |  | 
14 | C[C@H]1C[C@@H]1C(=O)N1C2CNCC1C2 |  | 31000 |  | 210 |  | 
15 | C[C@@H]1C[C@@H]1C(=O)N1C2CNCC1C2 |  | 30000 |  | 820 |  | 
16 | C[C@@H]1C[C@H]1C(=O)N1C2CNCC1C2 | 9.2 | 1700 | 50 |  |  | 
17 | C[C@H]1C[C@H]1C(=O)N1C2CNCC1C2 | 9.6 | 1800 |  |  |  | Ki (Rat α4β2; [4]): 180 nM

Row | Structure (SMILES) | Ki (Human α4β2; [1]) [nM] | Ki (α6β3β4α5; read-out: α6β3β4α5 Ki) [nM] | Ki (Rat α4β2; [2]) [nM] | Ki (Human α4β2; [3]) [nM] | Ki (α6β3β4α5; α6β3β4α5 Ki) [nM] | other results
18 | O=C([C@@H]1C[C@@H]1F)N1CC2CC(C1)N2 | 1.8 |  | 0.86 |  | 280 | 
19 | O=C([C@@H]1C[C@H]1F)N1CC2CC(C1)N2 |  |  | 0.54 | 1 | 91 | 
20 | C[C@H]1C[C@H]1C(=O)N1CC2CC(C1)N2 | 1.8 |  | 0.39 |  | 58 | 
21 | C[C@@H]1C[C@H]1C(=O)N1CC2CC(C1)N2 |  |  | 0.08 | 1 | 95 | 
22 | [2H]C1([2H])C([2H])([2H])C1([2H])C(=O)N1CC2CC(C1)N2 | 0.49 |  | 0.24 |  | 120 | 
23 | O=C(CC(F)(F)F)N1CC2CC(C1)N2 [3-(2,2,2-trifluoroethyl)carbonyl-3,6-diazabicyclo[3.1.1]heptane] | 11 | 1700 | 25 |  |  | 
24 | O=C(c1ccc(Br)o1)N1CC2CC(C1)N2 [3-(2-bromofuran-5-yl)carbonyl-3,6-diazabicyclo[3.1.1]heptane] | 25 | 1800 | 83 |  |  | 
25 | O=C(c1cc(Br)co1)N1CC2CC(C1)N2 [3-(3-bromofuran-5-yl)carbonyl-3,6-diazabicyclo[3.1.1]heptane] | 35 | 2700 | 80 |  |  | 
26 | O=C(c1occc1Cl)N1CC2CC(C1)N2 [3-(3-chlorofuran-2-yl)carbonyl-3,6-diazabicyclo[3.1.1]heptane] |  | 2400 |  |  |  | Ki (Human α4β2; read-out: Human α4β2 Ki, membrane competition binding): 7.9 nM; Ki (Rat α4β2; read-out: Rat α4β2 Ki, rat cortex membranes): 56 nM
27 | O=C(C1CC1)N1CC2CC(C1)N2 [3-cyclopropylcarbonyl-3,6-diazabicyclo[3.1.1]heptane] |  |  | 2.3 | 3 | 140 | 
28 | CC(C)C(=O)N1CC2CC(C1)N2 [3-isopropylcarbonyl-3,6-diazabicyclo[3.1.1]heptane] | 220 |  | 23 |  | 830 | 
29 | O=C([C@H]1C[C@H]1F)N1CC2CC(C1)N2 [drawing 110] | 5.2 |  | 1.1 |  | 530 | 
30 | O=C([C@H]1C[C@@H]1F)N1CC2CC(C1)N2 [drawing 111] | 4.5 |  | 0.81 |  | 120 | 
31 | C[C@H]1C[C@@H]1C(=O)N1CC2CC(C1)N2 [drawing 157] | 7.6 |  | 100 |  | 2600 | 
32 | O=C([C@H]1C[C@H]1F)N1CC2CC(C1)N2 [drawing 163] |  |  | 0.53 | 1.1 | 150 | 
33 | O=C([C@H]1C[C@@H]1F)N1CC2CC(C1)N2 [drawing 165] | 4.6 |  | 1.6 |  | 780 | 
34 | C[C@H]1C[C@@H]1C(=O)N1CC2CC(C1)N2 [drawing 170] | 13 |  | 4.8 |  | 1700 | 
